According to patent publication US4150138A, “Method of reducing blood pressure with thiourea derivatives and guanidine derivatives” (Hoffmann-La Roche Inc., priority 1978, dated 1979):
Read-outs that look alike come from different tables or passages of the source.

Assays:
[1] = system: genetically or deoxycorticosterone acetate/sodium chloride fed hypertensive rats; assay: Anti-hypertensive activity in hypertensive rats (indirect systolic blood pressure from the tail, heart rate); assay type: in vivo, rat (Charles River male); settings: 10 mg/kg p.o., 6 hours after administration
Protocol: For example, Doca-Na hypertension is induced in Charles River male rats weighing 170-210 grams by unilateral nephrectomy followed by subcutaneous implantation of a 25 mg. deoxycorticosterone acetate pellet. Animals are placed in individual cages and receive 0.9% sodium chloride solution and rat chow diet ad libitum. Two weeks are allowed to elapse from the time of surgery for development of hypertension, i.e., systolic blood pressure above 150 mm Hg. Systolic blood pressure is measured indirectly from the tail of unanesthetized rats (restrained in holders heated for 5-10 minutes at 37°-38° C.) using a pneumatic pulse transducer (piezo-electric crystal and occluding cuff). The transducer and occluding cuff are coupled to a two-channel recorder. Control readings are taken prior to drug and at 1, 3, 6 and 24 hours post-drug. All test compounds are prepared in acacia solution (5%) and are orally administered to the test animals.

[2] = Acute toxicity (LD50) in the mouse; settings: in vivo
[3] = system: tetrabenazine-induced ptosis in mice; assay: Antidepressant activity: prevention of tetrabenazine-induced ptosis in mice; assay type: in vivo; settings: Mus musculus, ip, 1 h, tetrabenazine (normally 150 mg/kg) i.p. one hour after test compound, ptosis read one hour later, read-out: ED50 (dose at which ptosis is prevented in 3/6 of the mice)
Protocol: The compounds of formulas I and II have central nervous system activity, including antidepressant activity. […] For example, six mice are treated with the test compound. One hour later a ptosis-inducing dose of tetrabenazine (normally 150 mg/kg) is given intraperitoneally. Ptosis is read one hour after the tetrabenazine injection. The ED50 is the dose at which ptosis is prevented in 3/6 of the mice. […] The ED50 is calculated by the method of Behrens. Arch. Exp. Path. & Pharm. 140, 237 (1929).

NCCNC(=S)Nc1cccc(Cl)c1Cl [1-(2-aminoethyl)-3-(2,3-dichlorophenyl)thiourea]
decrease in the blood pressure [1]: 51 mm/Hg
decrease in the heart rate [1]: 95 beats/minutes
LD50 ([2]; ip, read-out: LD50 i.p.): 450 mg/kg
LD50 ([2]; po, read-out: LD50 p.o.): > 1000 mg/kg

NCCNC(=S)Nc1c(Cl)cccc1Cl [1-(2-aminoethyl)-3-(2,6-dichlorophenyl)thiourea]
decrease in the blood pressure [1]: 73 mm/Hg
decrease in the heart rate [1]: 81 beats/minutes
LD50 ([2]; ip, read-out: LD50 i.p.): 450 to 550 mg/kg
LD50 ([2]; po, read-out: LD50 p.o.): 750 to 775 mg/kg
ED50 [3]: 5.7 mg/kg
